Data on one compound can be found in ChEMBL document CHEMBL1131881 (Bioorg Med Chem Lett, 1999).

For this assay, the target named is Sodium-dependent dopamine transporter (Homo sapiens, UniProt Q01959). Description: Binding affinity towards dopamine transporter (DAT).

The term IC50 denotes the midpoint of a concentration-inhibition curve. A lower IC50 goes with inhibition by little substance.

Sodium-dependent dopamine transporter, sequence (Q01959 whole entry): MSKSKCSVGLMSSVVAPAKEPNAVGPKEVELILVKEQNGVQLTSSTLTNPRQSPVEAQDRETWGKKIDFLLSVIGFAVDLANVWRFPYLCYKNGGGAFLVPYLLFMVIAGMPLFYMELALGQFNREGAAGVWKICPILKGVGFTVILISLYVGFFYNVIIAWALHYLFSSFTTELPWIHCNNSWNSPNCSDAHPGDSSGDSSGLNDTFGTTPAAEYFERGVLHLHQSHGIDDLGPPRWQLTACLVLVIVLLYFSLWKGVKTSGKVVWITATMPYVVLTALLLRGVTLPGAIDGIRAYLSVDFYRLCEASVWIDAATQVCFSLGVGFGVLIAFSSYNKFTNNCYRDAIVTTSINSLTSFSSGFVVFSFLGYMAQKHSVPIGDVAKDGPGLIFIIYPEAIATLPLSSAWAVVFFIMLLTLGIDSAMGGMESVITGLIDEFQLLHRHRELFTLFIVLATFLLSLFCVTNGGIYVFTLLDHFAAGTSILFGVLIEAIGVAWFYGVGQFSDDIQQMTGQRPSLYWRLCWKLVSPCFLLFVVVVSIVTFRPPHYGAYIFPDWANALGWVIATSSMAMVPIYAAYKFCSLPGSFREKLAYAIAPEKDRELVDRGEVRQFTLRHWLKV

`CCC[C@@H]1CN(C)CC[C@@H]1c1ccc(Cl)cc1`: the concentration for half-maximal inhibition (IC50) came to 3 nM.
